Experimental data as given in patent publication US8980912B2, “Cyclic amine compound and acaricide” (Nippon Soda Co., Ltd., priority 2010, dated 2015).

Tested on: Tetranychus urticae
Assay: Efficacy test against Tetranychus urticae (adult mites on kidney bean plant, spray)
Format: in vivo
Conditions: emulsion diluted to 31 ppm, sprayed; organic phosphorous-resistant adult females; 3 days after spraying
Experimental: Efficacy Test Against Tetranychus urticae
Seventeen organic phosphorous-resistant adult female Tetranychus urticae mites were inoculated onto the first leaves of a kidney bean plant planted in a No. 3 pot 7 to 10 days after germination. Next, an emulsion was prepared having the formula indicated in the aforementioned Preparation example 2. […] The kidney bean plant was then placed in a temperature-controlled room at a temperature of 25° C. and humidity of 65%. The adult insect mortality rates were investigated 3 days after spraying. The test was repeated twice.

Q: `COC(C)COc1cc(C(F)(F)F)ccc1OC1CC2CCCC(C1)N2Oc1ccc(C(F)(F)F)cn1` (stereo not shown) [H-81] was tested. Which insect mortality rate did it give?
A: ≥ 80%
